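Dose response: 5 concentrations. Exposure: 48 h. Format: 96-well plates. Endpoint: linear interpolation; highest concentration if not reached. GI50 = concentration required for 50% inhibition of growth. At the TGI there is no net growth.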
Tests used:
Assay in all cases: inhibition of tumour cell growth, NCI panel, 48 h
[1] = test system: NCI-H226 lung
[2] = test system: NCI-H460 lung
[3] = test system: NCI-H522 lung
[4] = test system: NCI/ADR-RES ovarian
[5] = test system: OVCAR-3 ovarian
[6] = test system: OVCAR-4 ovarian
[7] = test system: OVCAR-5 ovarian
[8] = test system: OVCAR-8 ovarian
[9] = test system: PC-3 prostate
[10] = test system: RPMI-8226 leukemia
[11] = test system: RXF 393 renal
[12] = test system: SF-268 CNS
[13] = test system: SF-295 CNS
[14] = test system: SF-539 CNS
[15] = test system: SK-MEL-2 melanoma
[16] = test system: SK-MEL-28 melanoma
[17] = test system: SK-MEL-5 melanoma
[18] = test system: SK-OV-3 ovarian
[19] = test system: SN12C renal
[20] = test system: SNB-19 CNS
[21] = test system: SNB-75 CNS
[22] = test system: SR leukemia
[23] = test system: SW-620 colon
[24] = test system: T-47D breast
[25] = test system: TK-10 renal
[26] = test system: U251 CNS
[27] = test system: UACC-257 melanoma
[28] = test system: UACC-62 melanoma
[29] = test system: UO-31 renal

`CN(C)CCCOc1c2ccc(Cl)cc2nc2c1oc1ccccc12` was tested, and the TGI [1] was 6770 nM, the GI50 [2] was 557 nM and the TGI [2] was 10200 nM. The GI50 [3] was 1570 nM, the TGI [3] was 4610 nM and the GI50 [4] was 677 nM. It also gave a TGI [4] of 6650 nM, a GI50 [5] of 2620 nM and a TGI [5] of 12700 nM. It also gave a GI50 [6] of 1750 nM, a TGI [6] of 7310 nM and a GI50 [7] of 2090 nM. For the same compound, the TGI [7] was 8040 nM, the GI50 [8] was 1370 nM and the TGI [8] was 10900 nM. The GI50 [9] was 1710 nM, the TGI [9] was 5410 nM and the GI50 [10] was 2070 nM. It also gave a TGI [10] of 7520 nM, a GI50 [11] of 1370 nM and a TGI [11] of 3710 nM. The GI50 [12] was 1620 nM, the TGI [12] was 11200 nM and the GI50 [13] was 2180 nM. The TGI [13] was 10800 nM, the GI50 [14] was 1430 nM and the TGI [14] was 2840 nM. The GI50 [15] was 1860 nM, the TGI [15] was 3530 nM and the GI50 [16] was 1810 nM. The TGI [16] was 3430 nM, the GI50 [17] was 1780 nM and the TGI [17] was 3210 nM. It also gave a GI50 [18] of 2420 nM, a TGI [18] of 9550 nM and a GI50 [19] of 1020 nM. The TGI [19] was 11200 nM, the GI50 [20] was 2370 nM and the TGI [20] was 11900 nM. For the same compound, the GI50 [21] was 1480 nM, the TGI [21] was 2850 nM and the GI50 [22] was 697 nM. It also gave a TGI [22] of 6720 nM, a GI50 [23] of 535 nM and a TGI [23] of 8310 nM. It also gave a GI50 [24] of 2640 nM, a TGI [24] of 9870 nM and a GI50 [25] of 2960 nM. The TGI [25] was 7620 nM, the GI50 [26] was 1660 nM and the TGI [26] was 10700 nM. It also gave a GI50 [27] of 1850 nM, a TGI [27] of 3790 nM and a GI50 [28] of 1750 nM. The TGI [28] was 3610 nM, the GI50 [29] was 553 nM and the TGI [29] was 3370 nM.

From PubChem BioAssay (NCI)
